Data taken from the supplement of paper PMC10307832.

Assays:
Assay in all cases: relative viability (nuclei count vs DMSO), 5 days (fraction); higher = more cells survive
Salubrinal + Decitabine = compound: O=C(/C=C/c1ccccc1)NC(NC(=S)Nc1cccc2cccnc12)C(Cl)(Cl)Cl [Salubrinal] + Nc1ncn([C@H]2C[C@H](O)[C@@H](CO)O2)c(=O)n1 [Decitabine] (partner 2 µM)
In short: (§1)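 A single step with final 0.05% Triton X-100, 1% formaldehyde and 1 ug/ml Hoechst fixed the cells and stained nuclei 5 days after treatment. Lung cancer cell lines in 1536-well plates had been treated by pin tool the day after seeding with one drug alone or a fixed anchor-drug dose plus five library-drug doses (not always all listed) in √10 steps, and nuclei were counted on 4× images. Relative viability is the ratio of nuclei in treated wells to nuclei in vehicle wells, taken as the median of duplicate plates.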

Salubrinal + Tozasertib = compound: O=C(/C=C/c1ccccc1)NC(NC(=S)Nc1cccc2cccnc12)C(Cl)(Cl)Cl [Salubrinal] + Cc1cc(Nc2cc(N3CCN(C)CC3)nc(Sc3ccc(NC(=O)C4CC4)cc3)n2)n[nH]1 [Tozasertib] (partner 0.1 µM)
In short: as §1

[1] = compound: Cc1ccc2nc(NCCN)c3ncc(C)n3c2c1 + CC1(C)CCC(c2ccc(Cl)cc2)=C(CN2CCN(c3ccc(C(=O)NS(=O)(=O)c4ccc(N[C@H](CCN5CCOCC5)CSc5ccccc5)c(S(=O)(=O)C(F)(F)F)c4)cc3)CC2)C1 [Navitoclax] (partner 0.5 µM)
In short: as §1

Salubrinal + Phenformin = compound: O=C(/C=C/c1ccccc1)NC(NC(=S)Nc1cccc2cccnc12)C(Cl)(Cl)Cl [Salubrinal] + N=C(N)NC(=N)NCCc1ccccc1 [Phenformin] (partner 250 µM)
In short: as §1

UMC-11
relative viability (Salubrinal + Decitabine; first compound 0.08 µM): 0.548
relative viability (Salubrinal + Decitabine; first compound 0.253 µM): 0.608
relative viability (Salubrinal + Decitabine; first compound 0.8 µM): 0.674
relative viability (Salubrinal + Decitabine; first compound 2.53 µM): 0.606
relative viability (Salubrinal + Decitabine; first compound 8 µM): 0.561
relative viability (Salubrinal + Tozasertib; first compound 0.08 µM): 0.208
relative viability (Salubrinal + Tozasertib; first compound 0.253 µM): 0.225
relative viability (Salubrinal + Tozasertib; first compound 0.8 µM): 0.21
relative viability (Salubrinal + Tozasertib; first compound 2.53 µM): 0.186
relative viability (Salubrinal + Tozasertib; first compound 8 µM): 0.189
relative viability ([1]; first compound 0.04 µM): 0.315
relative viability ([1]; first compound 0.1265 µM): 0.342
relative viability ([1]; first compound 0.4 µM): 0.33
relative viability ([1]; first compound 1.265 µM): 0.324
relative viability ([1]; first compound 4 µM): 0.365
relative viability (Salubrinal + Phenformin; first compound 0.08 µM): 0.354
relative viability (Salubrinal + Phenformin; first compound 0.253 µM): 0.354
relative viability (Salubrinal + Phenformin; first compound 0.8 µM): 0.335
relative viability (Salubrinal + Phenformin; first compound 2.53 µM): 0.332
relative viability (Salubrinal + Phenformin; first compound 8 µM): 0.299
